According to US20160257697A1, “THIOPHENE-SUBSTITUTED TETRACYCLIC COMPOUNDS AND METHODS OFUSE THEREOF FOR THE TREATMENT OF VIRAL DISEASES” (priority 2013, published 2016):
Like-named read-outs stand apart in the source and are kept apart here.

Experiments:
Experiment in all cases: microbe, parasite or virus in culture
Type in all cases: cell-based, Hepatitis C virus (HCV)
HCV replicon 1A = settings: Replicon Assay A
Method: (§1) To measure cell-based anti-HCV activity of compounds of the present invention, two complimentary assays were employed using various replicons. In the first assay (“Replicon Assay A”), replicon cells were seeded at 2000 cells/well in 384-well 384-well flat bottom tissue culture treated clear bottom plate (Corning 3707) in the presence of the test compound. […] The final concentration of DMSO was 0.5%. Fetal bovine serum was 5%, in the assay media. Cells were harvested on day 3 by removing media and washing the cells with a suitable wash buffer. The cells are lysed with the addition of 1× Qiagen lysis buffer (Cat #1062731). The replicon RNA level was measured using real time PCR (TaqMan® EZ RT-PCR, Applied Biosystems 403028) with the following primers and probes: […]
(§2) Cyclophilin RNA was used as endogenous control and was amplified in the same reaction as NS5B (multiplex PCR). The real-time RT-PCR reactions were run on ABI PRISM 7900HT Sequence Detection System using the following program: 50° C. for 2 minutes, 60° C. for 30 minutes, 95° C. for 5 minutes, 40 cycles of 94° C. for 20 sec, 55° C. for 1 minutes.
(§3) The amount of HCV replicon RNA per cell is quantified using a linear regression curve for a known nanogram (ng) amount of HCV replicon total RNA. This is established by plotting the Cycle Threshold values (Ct) from the Neo probe and primer set versus the log (ng) for each HCV replicon total RNA standard. The amount of HCV RNA for each replicon sample is calculated by taking the sample's Ct value, minus the line intercept, divided by the slope of the line. Similarly, the amount of Cyclophilin mRNA per cell is also quantified using a linear regression curve for a known nanogram (ng) amount of HCV replicon total RNA. Again, this is established by plotting the Cycle Threshold values (Ct) from the Cyclophilin probe and primer set versus the log (ng) for each HCV replicon total RNA standard.
(§4) Data for replicons 1A, 1AY93H and 2B were obtained using Replicon Assay A and data for replicons 1AQ30D and 1B were obtained using Replicon Assay B.

HCV replicon 2B = settings: read-out: 2B IC50, Replicon Assay A
Method: as §1, §2, §3, §4

HCV replicon 1AY93H = settings: read-out: 1A Y93H IC50; replicon 1AY93H; Replicon Assay A
Method: as §1, §2, §3, §4

[1] = Hepatitis C virus, HCV replicon 1A

SMILES | IC50 (HCV replicon 1A; replicon 1A) | IC50 (HCV replicon 2B; replicon 2B) | further results
COC(=O)N[C@H](C(=O)N1CCC[C@H]1c1ncc(-c2cc(F)c3c(c2)OC(c2ccc(C(C)CF)s2)n2c-3cc3cc(-c4cnc([C@@H]5CCCN5C(=O)[C@@H](NC(=O)OC)C(C)C)[nH]4)ccc32)[nH]1)C(C)C (single isomer, unassigned) [Compound 333] | 0.001 nM | 0.0314 nM | 
COC(=O)N[C@H](C(=O)N1CCC[C@H]1c1ncc(-c2cc(F)c3c(c2)OC(c2sc(C4CC4)cc2F)n2c-3cc3cc(-c4cnc([C@@H]5CCCN5C(=O)[C@@H](NC(=O)OC)C(C)C)[nH]4)ccc32)[nH]1)C(C)C (single isomer, unassigned) [Compound 66] |  | 0.23 nM | IC50 (HCV replicon 1AY93H): 0.13 nM
COC(=O)NC(C(=O)N1CCC[C@H]1c1ncc(-c2cc(F)c3c(c2)OC(c2ccc(C4CC4)s2)n2c-3cc3cc(-c4cnc([C@@H]5CCCN5C(=O)[C@@H](NC(=O)OC)C(C)C)[nH]4)ccc32)[nH]1)C(C)(C)F (single isomer, unassigned) [Compound 68] |  | 1.12 nM | IC50 (HCV replicon 1AY93H): 0.12 nM
COC(=O)N[C@H](C(=O)N1CCC[C@H]1c1ncc(-c2cc(F)c3c(c2)OC(c2ccc(C(C)C(F)(F)F)s2)n2c-3cc3cc(-c4cnc([C@@H]5CCCN5C(=O)[C@@H](NC(=O)OC)C(C)C)[nH]4)ccc32)[nH]1)C(C)C (single isomer, unassigned) [Compound 133] | 0.002 nM | 0.15 nM | 
COC(=O)N[C@H](C(=O)N1CCC[C@H]1c1ncc(-c2cc(F)c3c(c2)OC(c2ccc(C4CCCCC4)s2)n2c-3cc3cc(-c4cnc([C@@H]5CCCN5C(=O)[C@@H](NC(=O)OC)C(C)C)[nH]4)ccc32)[nH]1)C(C)C (single isomer, unassigned) [Compound 528] |  |  | IC50 (HCV replicon 1A; [1]): 0.00883 nM; IC50 (HCV replicon 2B; HCV replicon 2B): 8.81 nM
COC(=O)NC(C(=O)N1CCC[C@H]1c1ncc(-c2ccc3c(c2)cc2n3C(c3ccc(C4CC4)s3)Oc3cc(-c4cnc([C@@H]5CCCN5C(=O)[C@@H](NC(=O)OC)C(C)C)[nH]4)cc(F)c3-2)[nH]1)C1CCOC2(CC2)C1 (single isomer, unassigned) [Compound 177] | 0.0014 nM | 0.016 nM | 
COC(=O)N[C@H](C(=O)N1CCC[C@H]1c1ncc(-c2cc(F)c3c(c2)OC(c2ccc(C4CC4(F)F)s2)n2c-3cc3cc(-c4cnc([C@@H]5CCCN5C(=O)[C@@H](NC(=O)OC)C(C)C)[nH]4)ccc32)[nH]1)C(C)C (single isomer, unassigned) [Compound 118] |  | 0.97 nM | IC50 (HCV replicon 1A; Hepatitis C virus, replicon 1A): 0.0012 nM
COC(=O)NC(C(=O)N1[C@@H]2C[C@@H]2C[C@H]1c1ncc(-c2ccc3c(c2)cc2n3C(c3cc4ccccc4s3)Oc3cc(-c4cnc([C@@H]5CCCN5C(=O)[C@@H](NC(=O)OC)C(C)C)[nH]4)cc(F)c3-2)[nH]1)C1C[C@@H](C)O[C@@H](C)C1 (single isomer, unassigned) [Compound 647] |  |  | IC50 (HCV replicon 1A; [1]): 0.0026 nM; IC50 (HCV replicon 2B; HCV replicon 2B): 0.153 nM
COC(=O)NC(C(=O)N1CCC[C@H]1c1ncc(-c2ccc3c(c2)cc2n3C(c3ccc(C4CC4)s3)Oc3cc(-c4cnc([C@@H]5C[C@H]6C[C@H]6N5C(=O)[C@@H](NC(=O)OC)C(C)C)[nH]4)cc(F)c3-2)[nH]1)C1C[C@@H](C)O[C@@H](C)C1 (single isomer, unassigned) [Compound 536] |  |  | IC50 (HCV replicon 1A; [1]): 0.00272 nM; IC50 (HCV replicon 2B; HCV replicon 2B): 0.0219 nM
COC(=O)NC(C(=O)N1CCC[C@H]1c1ncc(-c2ccc3c(c2)cc2n3C(c3ccc(C4CC4)s3)Oc3cc(-c4cnc([C@@H]5CCCN5C(=O)[C@@H](NC(=O)OC)C(C)C)[nH]4)cc(F)c3-2)[nH]1)C1CCO[C@@H](C)C1 (single isomer, unassigned) [Compound 401] | 0.0018 nM | 0.0064 nM | 
COC(=O)NC(C(=O)N1CCC[C@H]1c1ncc(-c2ccc3c(c2)cc2n3C(c3ccc(C4CC4)s3)Oc3cc(-c4cnc([C@@H]5CCCN5C(=O)[C@@H](NC(=O)OC)C(C)C)[nH]4)cc(F)c3-2)[nH]1)C1CCO[C@@H](C)C1 (single isomer, unassigned) [Compound 402] | 0.0034 nM | 0.0054 nM | 
COC(=O)NC(C(=O)N1CCC[C@H]1c1ncc(-c2ccc3c(c2)cc2n3C(c3ccc(C4CC4)s3)Oc3cc(-c4cnc([C@@H]5CCCN5C(=O)[C@@H](NC(=O)OC)C(C)C)[nH]4)cc(F)c3-2)[nH]1)C1CCOC2(CC2)C1 (single isomer, unassigned) [Compound 179] | 0.0012 nM | 4.63 nM | 
COCc1ccc(C2Oc3cc(-c4cnc([C@@H]5CCCN5C(=O)[C@@H](NC(=O)OC)C(C)C)[nH]4)cc(F)c3-c3cc4cc(-c5c[nH]c([C@@H]6CCCN6C(=O)[C@@H](NC(=O)OC)C(C)C)n5)ccc4n32)s1 (single isomer, unassigned) [Compound 512] |  |  | IC50 (HCV replicon 1A; HCV replicon 1A): 0.00282 nM; IC50 (HCV replicon 2B; HCV replicon 2B): 0.15 nM
COC(=O)NC(C(=O)N1[C@@H]2C[C@@H]2C[C@H]1c1ncc(-c2ccc3c(c2)cc2n3C(c3ccc(C(F)F)s3)Oc3cc(-c4cnc([C@@H]5CCCN5C(=O)[C@@H](NC(=O)OC)C(C)C)[nH]4)cc(F)c3-2)[nH]1)C1C[C@@H](C)O[C@@H](C)C1 (single isomer, unassigned) [Compound 286] |  | 0.018 nM | IC50 (HCV replicon 1A; Hepatitis C virus, replicon 1A): 0.001 nM
COC(=O)NC(C(=O)N1CCC[C@H]1c1ncc(-c2ccc3c(c2)cc2n3C(c3ccc(C4CC4)s3)Oc3cc(-c4cnc([C@@H]5CCCN5C(=O)[C@@H](NC(=O)OC)C(C)C)[nH]4)cc(F)c3-2)[nH]1)C1CCOC2(CC2)C1 (single isomer, unassigned) [Compound 178] | 0.0017 nM | 3.4 nM | 
COC(=O)NC(C(=O)N1CCC[C@H]1c1ncc(-c2ccc3c(c2)cc2n3C(c3ccc(C4CC4)s3)Oc3cc(-c4cnc([C@@H]5CCCN5C(=O)[C@@H](NC(=O)OC)C(C)C)[nH]4)cc(F)c3-2)[nH]1)C1CCOC2(CC2)C1 (single isomer, unassigned) [Compound 176] |  | 0.046 nM | IC50 (HCV replicon 1A; Hepatitis C virus, replicon 1A): 0.0011 nM
COC(=O)N[C@H](C(=O)N1CCC[C@H]1c1ncc(-c2cc(F)c3c(c2)OC(c2cc4c(s2)C(C)(C)CC4)n2c-3cc3cc(-c4cnc([C@@H]5CCCN5C(=O)[C@@H](NC(=O)OC)C(C)C)[nH]4)ccc32)[nH]1)C(C)C (single isomer, unassigned) [Compound 391] |  |  | IC50 (HCV replicon 1A; Hepatitis C virus, replicon 1A): 0.0035 nM
[2H]C(C)(C)C(NC(=O)OC)C(=O)N1CCC[C@H]1c1ncc(-c2cc(F)c3c(c2)OC(c2ccc(C4CC4)s2)n2c-3cc3cc(-c4cnc([C@@H]5CCCN5C(=O)[C@@H](NC(=O)OC)C(C)C)[nH]4)ccc32)[nH]1 (single isomer, unassigned) [Compound 30] | 0.0513 nM | 33.3 nM | 
COC(=O)N[C@H](C(=O)N1CCC[C@H]1c1ncc(-c2cc(F)c3c(c2)OC(c2ccc(C(CF)CF)s2)n2c-3cc3cc(-c4cnc([C@@H]5CCCN5C(=O)[C@@H](NC(=O)OC)C(C)C)[nH]4)ccc32)[nH]1)C(C)C (single isomer, unassigned) [Compound 121] | 0.0012 nM | 0.17 nM | 
CCc1ccc(C2Oc3cc(-c4cnc([C@@H]5CCCN5C(=O)C(NC(=O)OC)C5CCOC(C)(C)C5)[nH]4)cc(F)c3-c3cc4cc(-c5cnc([C@@H]6CCCN6C(=O)[C@@H](NC(=O)OC)C(C)C)[nH]5)ccc4n32)s1 (single isomer, unassigned) [Compound 161] | 0.0586 nM |  | 
COCc1ccc(C2Oc3cc(-c4cnc([C@@H]5CCCN5C(=O)[C@@H](NC(=O)OC)C(C)C)[nH]4)cc(F)c3-c3cc4cc(-c5cnc([C@@H]6CCCN6C(=O)[C@@H](NC(=O)OC)[C@@H]6C[C@@H](C)O[C@@H](C)C6)[nH]5)ccc4n32)s1 (single isomer, unassigned) [Compound 534] |  |  | IC50 (HCV replicon 1A; HCV replicon 1A): 0.00692 nM; IC50 (HCV replicon 2B; HCV replicon 2B): 0.02 nM
